We go through one compound from US12448624B2, “Modified nucleic acid having improved treatment efficacy, and anticancer pharmaceutical composition containing same” (INTEROLIGO CORPORATION, priority 2018, dated 2025).

The nature of data set [1]: Stability of atelocollagen/collagen disk formulations in rat plasma. To be noted: 37° C. Format: in vitro ADME. The method, then: Sample treatment, calibration curve creation, and LC-MS/MS analysis conditions are the same as described above.
Sample treatment was conducted as follows. […] Thereafter, the supernatant was taken and then centrifuged again under the same conditions as above. Then, 5 μL of the concentrate was taken and diluted by 10-fold using the same rat plasma in order to measure a concentration in plasma (“plasma concentration”). […] The above sample treatment was conducted in the same manner as the calibration curve creation, followed by performing sample analysis under the same LC-MS/MS conditions.
In order to evaluate the stability of the IO101L/atelocollagen disk formulation in rat plasma, experiments were conducted with 5 groups (Groups 1-5) (see Table 12 below). Normal collagen (SK Co.) was used for comparison with atelocollagen.

The test system of data set [2] is patient-derived pancreatic cancer cells. Nature of the data set: PDX pancreatic cancer mouse model, TUNEL analysis. The class given is in vivo. To be noted: 1 month after implantation.
From the text: Untreated control mice were also included for comparison.
1 month after the disk implantation, mice were sacrificed, and tissue samples and blood were collected.
The next data set can be described thus: in vivo. To be noted: rat, iv. The method, then:
Sprague-Dawley male rats were subjected to induced anesthesia with isoflurane, which is an inhalation anesthetic, then a polyethylene (PE) tube (Clay Adams, Becton Dickinson, NJ, USA) was inserted into a carotid artery (for blood collection) and sutured with a suture, followed by fixing an end of the suture behind the neck. During surgery, anesthesia was maintained using ether and about 0.5 mL of physiological saline containing heparin (20 units/mL) was injected to prevent blood from clotting in a cannula. After the surgery is finished, the rats were placed in metabolic cages and allowed to recover completely from the anesthetic condition (4 to 5 hours), respectively. […] 1 and 2 ml/kg of drugs were administered intravenously. […] 5. 15. 30, 45, 60, 120, 360 and 720 minutes after the administration, 0.3 mL of blood was each collected through a […]. […] Then, the blood in the Eppendorf tube was immediately centrifuged, followed by storing the plasma.
All analytical procedures were implemented under conditions of shielding the tube. That is, all procedures were performed under quantification condition: SRM (selected reaction monitoring) mode (see Table 5 above), fixed phase condition: Hypersil gold C18, 1.9 μm, 100×2.1 mm^2 (Thermo Scientific, Matriks, Oslo, Norway), and mobile phase condition: distilled water (A) containing 0.1% formic acid and acetonitrile (B) (see Table 6 above).
Metformin as an internal standard substance (IS) was dissolved in acetonitrile to prepare another working solution of 645 ng/mL.
150 μL of the internal standard, that is, metformin was added to 50 μL of plasma (645 ng/mL in acetonitrile) and vortexed for 10 minutes, followed by performing centrifugation at 15,000 rpm and […] for 20 minutes. Thereafter, 150 μL of the supernatant was taken and transferred to another Eppendorf tube, and then the organic solvent was dried under a nitrogen stream. Then, 125 μL of tertiary distilled water was added to the dried Eppendorf tube, allowed to be redissolved. Then, the solution was vortexed for 5 minutes, centrifuged at 15,000 rpm and […] for 5 minutes. Thereafter, 100 μL of the supernatant was transferred to the vial for LC-MS/MS, 5 μL of the supernatant was injected and analyzed by LC-MS/MS.
Values of an area under the plasma concentration-time curve (AUCt) were calculated using a log-linear trapezoidal equation from the plasma concentration-time curves after the administration of drug to the final quantification time (specifically, the linear-trapezoidal equation is used in a section where the plasma concentration is increased, while in another section where plasma concentration is decreased, the trapezoidal equation is used by log transforming the concentration value). After oral administration, the highest plasma concentration (Cmax) and the time to reach the highest plasma concentration (Tmax) were determined from the plasma concentration-time curve. Values of the area (AUCinf) under the plasma concentration till infinite time-time curve were determined using the following equation. A terminal elimination rate constant (γZ) and half-life (t1/2) were determined from a slope of elimination of the plasma concentration. AUinf=AUCt+Ct/γZ(Ct: final quantification concentration, γZ: terminal elimination rate constant)

The conditions of data set [3]: mouse, in vivo. The method, then: Male […]/severe combined immunodeficiency mice, NOD/Shi-scid, IL-2RγKO mice (NOG mice®) (Central Lab Animal Inc., Saeronbio Inc., Seoul) and female nu/nu athymic mice (Orientbio) were maintained in 12 hours light/12 hours dark cycle under pathogen-free conditions. At the time of surgery, 10 new pancreatic tumor specimens stored in the patient's primary tumor (Institutional Examination Committee No. 4-2017-0594) was placed on ice-cooled RPMI medium, PDX SOP of PDTX Cleanbench Department Laboratory Animal Resources (Yonsei Biomedical Research Institute, Seoul) was washed with cold PBS, and non-necrotic fragments were cut into small pieces (2×2×2 mm) to remove blood or lipid portions. […]
After skin incision in PDX mice, the control (No treatment), Gem-IP (; sol-gel type), IO101-IP (; sol-gel type), IO101/AC disk (2.0 mg/3.0%), IO101-Con/AC (2.0 mg/3.0%) and Gem/atelocollagen disk (0.12 mg/3.0%), respectively, were implanted locally by subcutaneous anesthetic dissection between skin and tumor. A tumor size was measured three times per week by caliper measurement (Mitutoyo, Absolute AOS Digmatic, Kawasaki, Japan), and a volume was calculated as described above. Tumor growth in drug-treated animals was expressed as a tumor growth rate (tumor volume/initial tumor volume) compared to vehicle-treated mice. […]

Regarding `Nc1ccn([C@@H]2O[C@H](CO)[C@@H](O)C2(F)F)c(=O)n1` [Gemcitabine, 2,2′-difluorodeoxycytidine], the “dFdC Blood concentration” value in data set [1] (2 hours incubation) was 218 µg/mL. The “dFdC Blood concentration, supernatant” value in data set [1] (supernatant (Ultracell-3K), 2 hours) stood at 232 µg/mL. Moreover, the “apoptosis (TUNEL analysis) in tumor” value in data set [2] was “an apoptosis process was confirmed”. Further, in “in vivo” (male, Sprague-Dawley, 8 mg/kg), the AUC(0-inf) is 24500 ng·h/mL, the AUC(0-t) is 23200 ng·h/mL, the Cmax was determined as 13300 ± 5640 ng/mL and the MRT is 3.48 h. In “in vivo” (male, Sprague-Dawley, 8 mg/kg), the Tmax was 1 min, the Vd was 1.15 ± 0.223 L/kg, the clearance worked out at 5.59 ± 0.86 mL/min/kg and the “dFdU AUCt” value came out at 265 ± 57.1 µg·min/mL. Besides, in the data set “in vivo” (male, Sprague-Dawley, 8 mg/kg), the “dFdU Cmax” value was 477 ± 87.9 ng/mL, the “dFdU Tmax” value was 240 (120-360) min and the half-life stood at 2.95 ± 0.475 h. The concentration at 30 min in the data set “in vivo” (male, Sprague-Dawley, Gemcitabine blood concentration, 30 minutes) amounted to 5600 ng/mL. In addition, in the data set “in vivo” (male, Sprague-Dawley, Gemcitabine blood concentration, 45 minutes), the concentration at 45 min was determined as 3410 ng/mL. The compound further came in with a concentration at 60 min in “in vivo” (male, Sprague-Dawley, Gemcitabine blood concentration, 60 minutes) of 3550 ng/mL. This compound also showed a concentration at 120 min in “in vivo” (male, Sprague-Dawley, Gemcitabine blood concentration, 120 minutes) of 2800 ng/mL. Moreover, in “in vivo”, the “dFdU blood concentration, 1 minute” value is given as “BLLoQ” and the “dFdU blood concentration, 5 minutes” value is on record as “BLLoQ”. Moreover, in data set [3], the PLT is recorded as 684.1 ± 246.3 X1000/μl.

As a reminder, the AUC(0-inf) is the area under the concentration-time curve extrapolated to infinity. The AUC(0-t) is exposure summed from dosing to a finite time, without extrapolation to infinity. The Cmax is the maximum level reached in the sampled fluid or tissue. As usually defined, the MRT is a mean duration of stay, worked out from the concentration-time curve. As a reminder, the Tmax is the time from dosing to the highest level. By Vd is commonly meant the apparent volume that relates the amount in the body to the concentration in plasma or blood. High values mean wide distribution into tissue, low ones little distribution into tissue. Usually clearance stands for the volume of plasma or blood freed of the substance per unit of time. Read a low clearance as inefficient removal. One may read the half-life as the time needed for the level to fall by half in the phase considered. The low end stands for rapid decline, the high end for slow decline.
